Test in all cases: cells
Format in all cases: functional, cell-based

For experiment [1], the system named is MDA-MB-231. Conditions: Homo sapiens, MDA-MB-231, 72 h.
For experiment [2], the system named is NCI-H1975. Particulars: Homo sapiens, NCI-H1975, 72 h.
Description: Antiproliferative activity against human NCI-H1975 cells assessed as inhibition of cell growth incubated for 72 hrs by MTT assay
For experiment [3], the system named is PC-3. Conditions: Homo sapiens, PC-3, 72 h.
Description: Antiproliferative activity against human PC-3 cells assessed as inhibition of cell growth incubated for 72 hrs by MTT assay
The test system of experiment [4] is MGC-803. Particulars: Homo sapiens, MGC-803, 72 h.
Description: Antiproliferative activity against human MGC-803 cells assessed as inhibition of cell growth incubated for 72 hrs by MTT assay

pIC50: −log10 of the molar value.

In the case of `C=CC(=O)Nc1cccc(NC(=O)CSc2nc(Nc3ccc(Cl)c(Cl)c3)c3ccccc3n2)c1`, the pIC50 is 4.75 in experiment [1], 4.72 in experiment [2], 4.56 in experiment [3] and less than 4.30 in experiment [4].

With `C=CC(=O)Nc1cccc(NC(=O)CSc2nc(Nc3ccc(Br)cc3)c3ccccc3n2)c1`, the pIC50 was 4.76 in experiment [1], 5.20 in experiment [2], 4.91 in experiment [3] and 4.94 in experiment [4].

On to `C=CC(=O)Nc1cccc(NC(=O)CSc2nc(Nc3cc(OC)c(OC)c(OC)c3)c3ccccc3n2)c1`, for which the pIC50 in experiment [1], in experiment [2], in experiment [3] and in experiment [4] was less than 4.30 each time.

In the case of `O=C(CSc1nc(Nc2ccccc2)c2ccccc2n1)Nc1ccc(Cl)cc1`, the pIC50 in experiment [1] was 4.76; in experiment [2] it was 5.09; in experiment [3], 4.89; in experiment [4], 4.39.

Take `CCc1ccc(NC(=O)CSc2nc(Nc3ccccc3)c3ccccc3n2)cc1`: the pIC50 in experiment [1] was 4.47; in experiment [2], 5.00; in experiment [3], 4.75; in experiment [4] it was less than 4.30.

`CCc1cccc(NC(=O)CSc2nc(Nc3ccccc3)c3ccccc3n2)c1`: the pIC50 in experiment [1] is 4.91; in experiment [2], 4.92; in experiment [3], 4.96; in experiment [4], 4.80.

Take `O=C(CSc1nc(Nc2ccccc2)c2ccccc2n1)Nc1ccc(Cl)cc1Cl`: the pIC50 in experiment [1] is 4.71; in experiment [2], 5.08; in experiment [3], 5.04; in experiment [4], 4.91.

With `O=C(CSc1nc(Nc2ccccc2)c2ccccc2n1)Nc1ccc(F)c(Cl)c1`, the pIC50 in experiment [1] was 4.67; in experiment [2], 5.03; in experiment [3], 4.81; in experiment [4] it was 4.68.

Turning to `C=CC(=O)Nc1cccc(NC(=O)CSc2nc(Nc3ccc(F)c(Cl)c3)c3ccccc3n2)c1`, the pIC50 is 4.98 in experiment [1], less than 4.30 in experiment [2], less than 4.30 in experiment [3] and 5.11 in experiment [4].

With `O=C(CSc1nc(Nc2ccccc2)c2ccccc2n1)Nc1cccc(Cl)c1`, the pIC50 is 4.78 in experiment [1], 5.07 in experiment [2], 4.90 in experiment [3] and 4.84 in experiment [4].

Regarding `O=C(CSc1nc(Nc2ccccc2)c2ccccc2n1)Nc1cccc(F)c1`, the pIC50 was less than 4.30 in experiment [1], 5.17 in experiment [2], 4.81 in experiment [3] and 4.90 in experiment [4].

Take `O=C(CSc1nc(Nc2ccccc2)c2ccccc2n1)Nc1ccc(Cl)c(Cl)c1`: the pIC50 is 4.84 in experiment [1], 4.98 in experiment [2], 4.92 in experiment [3] and 4.42 in experiment [4].

For `C=CC(=O)Nc1cccc(NC(=O)CSc2nc(Nc3ccccc3F)c3ccccc3n2)c1`, the pIC50 was 4.73 in experiment [1], 5.18 in experiment [2], 5.03 in experiment [3] and 4.58 in experiment [4].

Regarding `O=C(CSc1nc(Nc2ccccc2)c2ccccc2n1)Nc1cccc([N+](=O)[O-])c1`, the pIC50 in experiment [1] is 4.48; in experiment [2] it was 4.75; in experiment [3], 4.93; in experiment [4], 4.55.

With `C=CC(=O)Nc1cccc(NC(=O)CSc2nc(Nc3ccc(Cl)cc3Cl)c3ccccc3n2)c1`, the pIC50 in experiment [1] was 4.64; in experiment [2], 5.22; in experiment [3] it was 4.59; in experiment [4], 4.92.

Turning to `O=C(CSc1nc(Nc2ccccc2)c2ccccc2n1)Nc1ccccc1Br`, the pIC50 was 4.85 in experiment [1], 4.99 in experiment [2], 4.70 in experiment [3] and 4.73 in experiment [4].

As to `C=CC(=O)Nc1cccc(NC(=O)CSc2nc(Nc3ccc(F)cc3)c3ccccc3n2)c1`, the pIC50 is 5.02 in experiment [1], 5.35 in experiment [2], 5.08 in experiment [3] and 5.08 in experiment [4].

Consider `C=CC(=O)Nc1cccc(NC(=O)CSc2nc(Nc3cccc(Cl)c3)c3ccccc3n2)c1`, for which the pIC50 in experiment [1] is 4.79; in experiment [2], 5.02; in experiment [3] it was 4.91; in experiment [4], 5.11.

Consider `O=C(CSc1nc(Nc2ccccc2)c2ccccc2n1)Nc1ccccc1Cl`, for which the pIC50 is 4.61 in experiment [1], 5.02 in experiment [2], 4.84 in experiment [3] and 4.61 in experiment [4].

Regarding `C=CC(=O)Nc1cccc(NC(=O)CSc2nc(Nc3ccc(Cl)cc3)c3ccccc3n2)c1`, the pIC50 was 4.99 in experiment [1], 5.12 in experiment [2], 4.97 in experiment [3] and 4.85 in experiment [4].

Take `O=C(CSc1nc(Nc2ccccc2)c2ccccc2n1)Nc1ccc(Br)cc1`: the pIC50 in experiment [1] was 4.94; in experiment [2], 4.97; in experiment [3] it was 5.07; in experiment [4], 4.71.

As to `C=CC(=O)Nc1cccc(NC(=O)CSc2nc(Nc3cccc(C)c3)c3ccccc3n2)c1`, the pIC50 was 4.78 in experiment [1], 4.92 in experiment [2], 4.53 in experiment [3] and 4.68 in experiment [4].

With `C=CC(=O)Nc1cccc(NC(=O)CSc2nc(Nc3ccccc3)c3ccccc3n2)c1`, the pIC50 in experiment [1] was 4.99; in experiment [2] it was 5.09; in experiment [3] it was 5.06; in experiment [4] it was 5.14.

Consider `O=C(CSc1nc(Nc2ccccc2)c2ccccc2n1)Nc1ccc([N+](=O)[O-])cc1`, for which the pIC50 in experiment [1] is 4.78; in experiment [2] it was 4.89; in experiment [3], 4.60; in experiment [4], less than 4.30.

`C=CC(=O)Nc1cccc(NC(=O)CSc2nc(Nc3cccc(OC)c3)c3ccccc3n2)c1`: the pIC50 in experiment [1] is 4.89; in experiment [2] it was 5.10; in experiment [3], 4.46; in experiment [4], 4.62.

With `C=CC(=O)Nc1cccc(NC(=O)CSc2nc(Nc3cccc([N+](=O)[O-])c3)c3ccccc3n2)c1`, the pIC50 is less than 4.30 in experiment [1], 4.65 in experiment [2], 4.33 in experiment [3] and less than 4.30 in experiment [4].

As for `C=CC(=O)Nc1cccc(NC(=O)CSc2nc(Nc3ccccc3Cl)c3ccccc3n2)c1`, the pIC50 in experiment [1] is 4.90; in experiment [2] it was 5.00; in experiment [3], 4.84; in experiment [4] it was 4.68.

Turning to `O=C(CSc1nc(Nc2ccccc2)c2ccccc2n1)Nc1ccc(F)cc1`, the pIC50 in experiment [1] was 4.47; in experiment [2] it was 4.78; in experiment [3], 5.02; in experiment [4] it was less than 4.30.

On to `O=C(CSc1nc(Nc2ccccc2)c2ccccc2n1)Nc1ccc(C(F)(F)F)cc1`, for which the negative-log IC50 (pIC50) in experiment [1] was 4.96; in experiment [2], 4.93; in experiment [3], 4.98; in experiment [4], 5.06.

`O=C(CSc1nc(Nc2ccccc2)c2ccccc2n1)Nc1cccc(Br)c1`: the pIC50 is 4.76 in experiment [1], 4.99 in experiment [2], 4.94 in experiment [3] and 5.02 in experiment [4].

For `C=CC(=O)Nc1cccc(NC(=O)CSc2nc(Nc3cccc(Br)c3)c3ccccc3n2)c1`, the pIC50 in experiment [1] was 4.71; in experiment [2], 4.92; in experiment [3], 4.82; in experiment [4] it was 4.92.

On to `C=CC(=O)Nc1cccc(NC(=O)CSc2nc(Nc3ccccc3Br)c3ccccc3n2)c1`, for which the pIC50 in experiment [1] is 4.82; in experiment [2], 4.71; in experiment [3] it was 4.77; in experiment [4], 4.89.

`C=CC(=O)Nc1cccc(NC(=O)CSc2nc(Nc3ccccc3C)c3ccccc3n2)c1`: the negative-log IC50 (pIC50) in experiment [1] was 4.69; in experiment [2], 5.00; in experiment [3], 4.64; in experiment [4], 4.52.

As to `O=C(CSc1nc(Nc2ccccc2)c2ccccc2n1)Nc1ccccc1F`, the pIC50 in experiment [1] is less than 4.30; in experiment [2], 5.03; in experiment [3] it was 4.91; in experiment [4], 4.97.

Turning to `C=CC(=O)Nc1cccc(NC(=O)CSc2nc(Nc3ccc(C(F)(F)F)cc3)c3ccccc3n2)c1`, the pIC50 in experiment [1] is 4.94; in experiment [2], 4.89; in experiment [3], 4.90; in experiment [4], 4.92.

For the molecule `COc1cccc(NC(=O)CSc2nc(Nc3ccccc3)c3ccccc3n2)c1`, the pIC50 in experiment [1] was 4.66; in experiment [2], 4.71; in experiment [3] it was 4.94; in experiment [4], 5.00.

For `C=CC(=O)Nc1cccc(NC(=O)CSc2nc(Nc3ccc(CC)cc3)c3ccccc3n2)c1`, the pIC50 in experiment [1] is 4.84; in experiment [2] it was 5.08; in experiment [3], 4.61; in experiment [4], 5.10.

Broadly, the pIC50 is −log10 of the IC50, conventionally taken in molar units. Higher therefore signals a small IC50.

Values taken from ChEMBL document CHEMBL4808194, “Design, synthesis and biological evaluation of novel 2,4-disubstituted quinazoline derivatives targeting H1975 cells via EGFR-PI3K signaling pathway” (Bioorg Med Chem, 2021).
